From the OligoGym collection
HELM strings list units from the 5' end as sugar, base in round brackets, then linkage (d deoxyribose, r ribose, m 2'-O-methyl, p phosphodiester). Strings are as the collection lists them; they lack the last nucleoside at the 3' end of the tested compound. [moe] = 2'-O-(2-methoxyethyl) (MOE); [sp] = phosphorothioate linkage; [m5C] = 5-methylcytosine

Target: UBE3A-ATS
Experiment: mouse, dose not given
Details: ASO

Substance | 3 h FOB score [score 0-7]
RNA1{[moe](G)[sp].[moe](G)p.[moe](G)p.[moe]([m5C])p.[moe](A)p.d([m5C])[sp].d(A)[sp].d(G)[sp].d(T)[sp].d(A)[sp].d(G)[sp].d(T)[sp].d(G)[sp].d(G)[sp].d(T)[sp].[moe](A)p.[moe](T)p.[moe]([m5C])[sp].[moe](A)}$$$$ (last 3' nucleoside missing) | 5.2
RNA1{[moe](G)[sp].[moe](G)p.[moe](A)p.[moe](T)p.[moe](T)p.d([m5C])[sp].d(A)[sp].d(A)[sp].d(T)[sp].d(A)[sp].d(G)[sp].d(T)[sp].d(G)[sp].d(T)[sp].d(A)[sp].[moe](G)p.[moe](G)p.[moe](T)[sp].[moe](G)}$$$$ (last 3' nucleoside missing) | 7
RNA1{[moe](G)[sp].[moe](T)p.[moe](T)p.[moe](T)p.[moe](A)p.d(T)[sp].d(A)[sp].d(G)[sp].d(G)[sp].d(G)[sp].d(T)[sp].d(G)[sp].d(G)[sp].d(T)[sp].d(T)[sp].[moe](G)p.[moe](G)p.[moe](T)[sp].[moe](T)}$$$$ (last 3' nucleoside missing) | 7
RNA1{[moe](G)[sp].[moe](A)p.[moe](T)p.[moe](T)p.[moe](T)p.d(T)[sp].d(A)[sp].d(T)[sp].d(T)[sp].d(G)[sp].d(G)[sp].d(T)[sp].d([m5C])[sp].d(A)[sp].d(T)[sp].[moe]([m5C])p.[moe](T)p.[moe]([m5C])[sp].[moe](G)}$$$$ (last 3' nucleoside missing) | 6.8
RNA1{[moe](T)[sp].[moe](T)p.[moe](G)p.[moe](G)p.[moe](T)p.d([m5C])[sp].d(A)[sp].d(T)[sp].d([m5C])[sp].d(T)[sp].d([m5C])[sp].d(G)[sp].d(G)[sp].d(G)[sp].d(T)[sp].[moe](A)p.[moe](T)p.[moe](A)[sp].[moe](T)}$$$$ (last 3' nucleoside missing) | 5.7
RNA1{[moe](G)[sp].[moe](T)p.[moe](G)p.[moe](T)p.[moe](T)p.[moe](T)p.d(T)[sp].d(T)[sp].d([m5C])[sp].d([m5C])[sp].d(A)[sp].d(T)[sp].d(T)[sp].d(T)[sp].d(T)[sp].d(T)[sp].[moe]([m5C])p.[moe](T)[sp].[moe]([m5C])}$$$$ (last 3' nucleoside missing) | 0
RNA1{[moe](G)[sp].[moe]([m5C])p.[moe]([m5C])p.[moe](A)p.[moe](G)p.[moe](G)p.d(T)[sp].d(G)[sp].d(T)[sp].d([m5C])[sp].d(T)[sp].d(T)[sp].d(A)[sp].d(T)[sp].d(A)[sp].d(T)[sp].[moe]([m5C])p.[moe](T)[sp].[moe](A)}$$$$ (last 3' nucleoside missing) | 0
RNA1{[moe](T)[sp].[moe](A)p.[moe](T)p.[moe](G)p.[moe](T)p.d(A)[sp].d(G)[sp].d([m5C])[sp].d(T)[sp].d([m5C])[sp].d(A)[sp].d(G)[sp].d([m5C])[sp].d(T)[sp].d([m5C])[sp].[moe](A)p.[moe](A)p.[moe](T)[sp].[moe](G)}$$$$ (last 3' nucleoside missing) | 1
RNA1{[moe](T)[sp].[moe](T)p.[moe](G)p.[moe](G)p.[moe](T)p.[moe]([m5C])[sp].d(A)[sp].d(T)[sp].d([m5C])[sp].d(T)[sp].d([m5C])[sp].d(G)[sp].d(G)[sp].d(G)[sp].[moe](T)p.[moe](A)[sp].[moe](T)}$$$$ (last 3' nucleoside missing) | 6.7
RNA1{[moe]([m5C])[sp].[moe](T)p.[moe](T)p.[moe](A)p.[moe](T)p.d(G)[sp].d(T)[sp].d(A)[sp].d(G)[sp].d([m5C])[sp].d(T)[sp].d([m5C])[sp].d(A)[sp].d(G)[sp].d([m5C])[sp].[moe](T)p.[moe]([m5C])p.[moe](A)[sp].[moe](A)}$$$$ (last 3' nucleoside missing) | 2
RNA1{[moe](G)[sp].[moe](A)p.[moe](T)p.[moe]([m5C])p.[moe](T)p.d(T)[sp].d(G)[sp].d(G)[sp].d(T)[sp].d(A)[sp].d(A)[sp].d(G)[sp].d(G)[sp].d([m5C])[sp].d(A)[sp].[moe](G)p.[moe]([m5C])p.[moe](T)[sp].[moe]([m5C])}$$$$ (last 3' nucleoside missing) | 6.8
RNA1{[moe](G)[sp].[moe](T)p.[moe](A)p.[moe](T)p.[moe](T)p.d(G)[sp].d(A)[sp].d([m5C])[sp].d(A)[sp].d([m5C])[sp].d([m5C])[sp].d(T)[sp].d([m5C])[sp].d([m5C])[sp].d(A)[sp].[moe](A)p.[moe]([m5C])p.[moe](T)[sp].[moe](G)}$$$$ (last 3' nucleoside missing) | 2
RNA1{[moe](G)[sp].[moe](G)p.[moe](A)p.[moe]([m5C])p.[moe](A)p.d(G)[sp].d([m5C])[sp].d(T)[sp].d(G)[sp].d(T)[sp].d(G)[sp].d(T)[sp].d(G)[sp].d(G)[sp].d(A)[sp].[moe](G)p.[moe](G)p.[moe](G)[sp].[moe](A)}$$$$ (last 3' nucleoside missing) | 5.5
RNA1{[moe](G)[sp].[moe]([m5C])p.[moe](T)p.[moe](G)p.[moe](A)[sp].d(T)[sp].d([m5C])[sp].d(A)[sp].d([m5C])[sp].d(A)[sp].d(T)[sp].d(T)[sp].d(A)[sp].[moe]([m5C])p.[moe]([m5C])p.[moe]([m5C])[sp].[moe](A)}$$$$ (last 3' nucleoside missing) | 1
RNA1{[moe](A)[sp].[moe](T)p.[moe](T)p.[moe](G)p.[moe](G)p.[moe](T)p.d([m5C])[sp].d(A)[sp].d(T)[sp].d([m5C])[sp].d(T)[sp].d([m5C])[sp].d(G)[sp].d(G)[sp].d(G)[sp].d(T)[sp].[moe](A)p.[moe](T)[sp].[moe](A)}$$$$ (last 3' nucleoside missing) | 4
RNA1{[moe](T)[sp].[moe](G)p.[moe]([m5C])p.[moe](T)[sp].d(T)[sp].d([m5C])[sp].d(A)[sp].d([m5C])[sp].d([m5C])[sp].d(A)[sp].d(T)[sp].d(T)[sp].[moe](T)p.[moe](T)p.[moe](G)p.[moe](A)[sp].[moe]([m5C])}$$$$ (last 3' nucleoside missing) | 0
RNA1{[moe](T)[sp].[moe](G)p.[moe]([m5C])p.[moe](T)p.[moe](G)p.[moe](A)p.d(T)[sp].d([m5C])[sp].d(A)[sp].d([m5C])[sp].d(A)[sp].d(T)[sp].d(T)[sp].d(A)[sp].d([m5C])[sp].d([m5C])[sp].[moe]([m5C])p.[moe](A)[sp].[moe](T)}$$$$ (last 3' nucleoside missing) | 1
RNA1{[moe](G)[sp].[moe]([m5C])[sp].[moe]([m5C])[sp].[moe](T)[sp].[moe](A)[sp].d(A)[sp].d(T)[sp].d(A)[sp].d(T)[sp].d(G)[sp].d(T)[sp].d(G)[sp].d(T)[sp].d([m5C])[sp].d(A)[sp].[moe](T)[sp].[moe]([m5C])[sp].[moe]([m5C])[sp].[moe](T)}$$$$ (last 3' nucleoside missing) | 6.8
RNA1{[moe](G)[sp].[moe](G)p.[moe]([m5C])p.[moe](A)p.[moe](A)p.d(G)[sp].d([m5C])[sp].d(A)[sp].d(A)[sp].d([m5C])[sp].d(T)[sp].d(A)[sp].d(T)[sp].d(G)[sp].d(G)[sp].[moe](G)p.[moe](T)p.[moe](G)[sp].[moe](G)}$$$$ (last 3' nucleoside missing) | 6.2
RNA1{[moe](G)[sp].[moe](G)p.[moe](T)p.[moe](T)p.[moe](T)p.d(A)[sp].d(G)[sp].d(T)[sp].d(G)[sp].d(T)[sp].d([m5C])[sp].d(A)[sp].d(T)[sp].d(A)[sp].d(T)[sp].[moe](G)p.[moe](T)p.[moe](A)[sp].[moe](G)}$$$$ (last 3' nucleoside missing) | 5.5
RNA1{[moe](G)[sp].[moe](T)p.[moe](A)p.[moe](G)p.[moe](A)p.d(T)[sp].d(A)[sp].d(A)[sp].d([m5C])[sp].d(T)[sp].d(T)[sp].d(T)[sp].d(A)[sp].d([m5C])[sp].d([m5C])[sp].[moe](T)p.[moe](T)p.[moe](G)[sp].[moe](A)}$$$$ (last 3' nucleoside missing) | 0
RNA1{[moe](T)[sp].[moe](G)p.[moe]([m5C])p.[moe](T)[sp].d([m5C])[sp].d(A)[sp].d(G)[sp].d(T)[sp].d(T)[sp].d(A)[sp].d(G)[sp].d(G)[sp].[moe](T)p.[moe](T)p.[moe](A)p.[moe](G)[sp].[moe](T)}$$$$ (last 3' nucleoside missing) | 7
RNA1{[moe]([m5C])[sp].[moe](T)p.[moe](A)p.[moe](A)p.[moe]([m5C])p.d(T)[sp].d(T)[sp].d(T)[sp].d(A)[sp].d(T)[sp].d(A)[sp].d(G)[sp].d(T)[sp].d(G)[sp].d(T)[sp].[moe](G)p.[moe](G)p.[moe](A)[sp].[moe](T)}$$$$ (last 3' nucleoside missing) | 5
RNA1{[moe](A)[sp].[moe](G)p.[moe](T)p.[moe](G)p.[moe](G)p.d(T)[sp].d(T)[sp].d(G)[sp].d([m5C])[sp].d([m5C])[sp].d(T)[sp].d(T)[sp].d(A)[sp].d(G)[sp].d(T)[sp].[moe](A)p.[moe](T)p.[moe](T)[sp].[moe](A)}$$$$ (last 3' nucleoside missing) | 6
RNA1{[moe]([m5C])[sp].[moe]([m5C])p.[moe](A)p.[moe](T)p.[moe](T)p.d([m5C])[sp].d(A)[sp].d(G)[sp].d([m5C])[sp].d(A)[sp].d([m5C])[sp].d(T)[sp].d(T)[sp].d(A)[sp].d(G)[sp].[moe](G)p.[moe](T)p.[moe](A)[sp].[moe](G)}$$$$ (last 3' nucleoside missing) | 3.7
RNA1{[moe](G)[sp].[moe](A)p.[moe](G)p.[moe](A)p.[moe](A)p.d([m5C])[sp].d([m5C])[sp].d([m5C])[sp].d(A)[sp].d([m5C])[sp].d(T)[sp].d(T)[sp].d(G)[sp].d(A)[sp].d(T)[sp].[moe]([m5C])p.[moe](T)p.[moe](A)[sp].[moe](T)}$$$$ (last 3' nucleoside missing) | 3
RNA1{[moe](G)[sp].[moe](G)p.[moe](T)p.[moe]([m5C])p.d(A)[sp].d(T)[sp].d([m5C])[sp].d(T)[sp].d([m5C])[sp].d(G)[sp].d(G)[sp].d(G)[sp].d(T)[sp].d(A)[sp].[moe](T)p.[moe](A)p.[moe](T)p.[moe](A)[sp].[moe](A)}$$$$ (last 3' nucleoside missing) | 5.5
